{
  "source": "patent US7888464B2",
  "about": "“Hepatitis C virus inhibitors” (Bristol-Myers Squibb Company, priority 2006, dated 2011)",
  "system": "HCV replicon (strain 1b) in HUH-7 cells",
  "assay": "HCV replicon FRET assay",
  "type": "cell-based",
  "details": "Hepatitis C virus, Huh-7, read-out: EC50 in the replicon FRET assay",
  "from_the_text": "An HCV replicon whole cell system was established as described by Lohmann V, Korner F, Koch J, Herian U, Theilmann L, Bartenschlager R., Science 285(5424): 110-3 (1999). This system enabled us to evaluate the effects of our HCV Protease compounds on HCV RNA replication. Briefly, using the HCV strain 1b sequence described in the Lohmann paper (Assession number: AJ238799), an HCV cDNA was synthesized by Operon Technologies, Inc. (Alameda, Calif.), and the full-length replicon was then assembled in plasmid pGem9zf(+) (Promega, Madison, Wis.) using standard molecular biology techniques. The replicon consists of (i) the HCV 5′ UTR fused to the first 12 amino acids of the capsid protein, (ii) the neomycin phosphotransferase gene (neo), (iii) the IRES from encephalomyocarditis virus (EMCV), and (iv) HCV NS3 to NS5B genes and the HCV 3′ UTR. Plasmid DNAs were linearized with ScaI and RNA transcripts were synthesized in vitro using the T7 MegaScript transcription kit (Ambion, Austin, Tex.) according to manufacturer's directions. In vitro transcripts of the cDNA were transfected into the human hepatoma cell line, HUH-7. […] Resulting cell lines were characterized for positive and negative strand RNA production and protein production over time.\nThe HCV replicon FRET assay was developed to monitor the inhibitory effects of compounds described in the disclosure on HCV viral replication. HUH-7 cells, constitutively expressing the HCV replicon, were grown in Dulbecco's Modified Eagle Media (DMEM) (Gibco-BRL) containing 10% Fetal calf serum (FCS) (Sigma) and 1 mg/ml G418 (Gibco-BRL). Cells were seeded the night before (1.5×10^4 cells/well) in 96-well tissue-culture sterile plates. Compound and no compound controls were prepared in DMEM containing 4% FCS, 1:100 Penicillin/Streptomysin (Gibco-BRL), 1:100 L-glutamine and 5% DMSO in the dilution plate (0.5% DMSO final concentration in the assay). Compound/DMSO mixes were added to the cells and incubated for 4 days at 37° C. After 4 days, cells were first assessed for cytotoxicity using alamar Blue (Trek Diagnotstic Systems) for a CC50 reading. The toxicity of compound (CC50) was determined by adding 1/10th volume of alamar Blue to the media incubating the cells. After 4 h, the fluorescence signal from each well was read, with an excitation wavelength at 530 nm and an emission wavelength of 580 nm, using the Cytofluor Series 4000 (Perspective Biosystems). Plates were then rinsed thoroughly with Phosphate-Buffered Saline (PBS) (3 times 150 μl). The cells were lysed with 25 μl of a lysis assay reagent containing an HCV protease substrate (5× cell Luciferase cell culture lysis reagent (Promega #E153A) diluted to 1× with distilled water, NaCl added to 150 mM final, the FRET peptide substrate (as described for the enzyme assay above) diluted to 10 μM final from a 2 mM stock in 100% DMSO. The plate was then placed into the Cytofluor 4000 instrument which had been set to 340 nm excitation/490 nm emission, automatic mode for 21 cycles and the plate read in a kinetic mode. EC50 determinations were carried out as described for the IC50 determinations.",
  "data": [
    {"smiles": "C=C[C@@H]1C[C@]1(NC(=O)[C@@H]1C[C@@](O)(c2ccc(-c3ccccc3)cc2)CN1C(=O)[C@@H](NC(=O)OC(C)(C)C)C(C)(C)C)C(=O)NS(=O)(=O)C1CC1", "note": "[Compound 3]", "values": [
      {"measurement": "EC50", "result": 11, "unit": "nM"}
    ]}
  ]
}
